Experimental data: patent US7811352B2, “Fertilizer compositions and methods of using” (priority 2005, dated 2010)

Columns and labels:
Format in all cases: in vivo
[1] = system: fairway height, creeping bentgrass; assay: Color rating of fairway height creeping bentgrass after fertilization (Example 6); settings: about two weeks after application
Protocol: In this Example, the efficacy of fertilizers on fairway height, creeping bentgrass was examined. Fertilizer compositions according to several embodiments of the present disclosure were prepared and compared to the commercial fertilizer products, urea 46-0-0 (granular) fertilizer, Lebanon fertilizer 21-0-12 (granular, commercially available from Lebanon Seaboard Corporation, Lebanon, Pa.) and Milorganite 6-2-0 (granular, commercially available from Milorganite, Milwaukee, Wis.). The fertilizer compositions were applied to turf prior to winter dormancy at a rate equivalent to supplying about 1.0 pounds of nitrogen (N) per 1000 square feet. Each of the fertilizer compositions were applied at substantially equal rates of lbs of nitrogen (N) per 1000 square feet. Table 3 illustrates the response of fairway height, creeping bentgrass to fertilization using various exemplary fertilizers of the present invention, taken about two weeks after application of the fertilizer. The letters in the Color and Injury columns correspond to Duncan's Multiple Range Test. Numbers (means) in a column followed by the same letter are not statistically different at P=0.05.

Bermuda grass = assay: Turfgrass quality and color ratings, Bermuda grass golf course fairways (Example 13); settings: scale 1-10
Protocol: In this Example, the effect of a fertilizer comprising lysine on turfgrass growth was examined. The effects of lysine (HCl) and LIQUID LYSINE on a common type of golf course fairway quality turfgrass (Bermuda green) were compared with those of CoRoN® brand fertilizer.
Six fertilizer treatments comprising two concentrations of each fertilizer composition (Coron® (N—P—K, 14-2-14), LIQUID LYSINE (N—P—K, 10-2-1), and lysine (HCl) (N—P—K, 15-2-1)) were prepared and applied to 3 replications of Bermuda grass for use on golf course fairways. The lysine (HCl) was applied as a granular using a Scotts 2 foot drop spreader on a setting of 4.5. The solutions of LIQUID LYSINE and Coran were applied using a Birchmeier backpack sprayer with a 5 foot spray pattern. Each fertilizer treatment was applied in concentrations 3.0 lb N/1000 ft^2 and 6.0 lb N/1000 ft^2. Plot size was 5 ft×60 ft set up as a randomized complete block. Irrigation was applied following application, Plots were rated for turfgrass quality and color (scale of 1-10 where 10=dark green turf 1=dead/brown turf and 6=minimally acceptable turf) and phytotoxicity (% burn) throughout the study period and compared with two untreated plots. […] All data was subject to statistical analysis and significant means were determined.

[2] = system: rhizomatous tall fescue grass; assay: Turfgrass quality and color ratings, rhizomatous tall fescue (Example 14); settings: scale of 1-10
Protocol: (§1) In this Example, the effect of a fertilizer comprising lysine on turfgrass growth was examined. The effects of lysine (HCl) and LIQUID LYSINE on a common type of lawn quality turfgrass (rhizomatous tall fescue) were compared with those of CoRoN® brand fertilizer.
(§2) Six fertilizer treatments comprising two concentrations of each fertilizer composition (Coron® (N—P—K, 14-2-34), LIQUID LYSINE (N—P—K, 10-2-1), and lysine (HCl) (N—P—K, 15-2-1)) were prepared and applied to 3 replications of rhizomatous tall fescue grass. The solutions of lysine (HCl) (dissolved in 0.5 gal water), LIQUID LYSINE and Coran were applied using a Birchmeier backpack sprayer with a 5 foot spray pattern, Each fertilizer treatment was applied in either a 3-split application with an application rate of 2 lb N/1000 ft^2 or a 6-split application with an application rate of 1 lb N/1000 ft^2. Plot size was 9 ft×9 ft set up as a randomized complete block. Irrigation was applied following application. Plots were rated for turfgrass quality and color (scale of 1-10 where 10=dark green turf, 1 =dead/brown turf, and 6=minimally acceptable turf and phytotoxicity (% burn) throughout the study period and compared with two untreated plots. Quality, color, and phytotoxicity were measured on day 7, day 14, day 21, day 28, day 35, and day 42 after application. All data was subject to statistical analysis and significant means were determined. Average turfgrass quality ratings for the treatments are presented in Table 21. Average turfgrass color ratings are presented in Table 22. Average phytotoxicity ratings (as % burn) are presented in Table 23.

[3] = system: rhizomatous tall fescue grass; assay: Phytotoxicity (% burn), rhizomatous tall fescue (Example 14)
Protocol: as §1, §2

[4] = Rate 3.0 lb N/1000 ft^2, Day 12
[5] = Rate 3.0 lb N/1000 ft^2, Day 19
[6] = Rate 3.0 lb N/1000 ft^2, Day 26
[7] = Rate 3.0 lb N/1000 ft^2, Day 33
[8] = Rate 3.0 lb N/1000 ft^2, Day 40
[9] = Rate 3.0 lb N/1000 ft^2, Day 47
[10] = Rate 6.0 lb N/1000 ft^2, Day 12
[11] = Rate 6.0 lb N/1000 ft^2, Day 19
[12] = Rate 6.0 lb N/1000 ft^2, Day 26
[13] = Rate 6.0 lb N/1000 ft^2, Day 33
[14] = Rate 6.0 lb N/1000 ft^2, Day 40
[15] = Rate 6.0 lb N/1000 ft^2, Day 47
[16] = 3-split, 2.0 lb N/1000 ft^2, Day 7
[17] = 3-split, 2.0 lb N/1000 ft^2, Day 14
[18] = 3-split, 2.0 lb N/1000 ft^2, Day 21
[19] = 3-split, 2.0 lb N/1000 ft^2, Day 28
[20] = 3-split, 2.0 lb N/1000 ft^2, Day 35
[21] = 6-split, 1.0 lb N/1000 ft^2, Day 7
[22] = 6-split, 1.0 lb N/1000 ft^2, Day 14
[23] = 6-split, 1.0 lb N/1000 ft^2, Day 21
[24] = 6-split, 1.0 lb N/1000 ft^2, Day 28
[25] = 6-split, 1.0 lb N/1000 ft^2, Day 35

NC(N)=O [Urea, urea, reference compound]
Color 1-9 (9 = dark green) ([1]; 1.09 Lbs. product/1000 square feet): 6.7 | Color 1-9 (9 = dark green) ([1]; 2.17 Lbs. product/1000 square feet): 7.0 | Color 1-9 (9 = dark green) ([1]; 6.51 Lbs. product/1000 square feet): 7.7

Cl.NCCCC[C@H](N)C(=O)O [Lys (HCl) 15% N, L-lysine monohydrochloride]
Color Ratings - Bermuda Grass (Bermuda grass; Rate 3.0 lb N/1000 ft^2, Day 7): 5.7ab | Quality Ratings - Bermuda Grass (Bermuda grass; Rate 3.0 lb N/1000 ft^2, Day 7): 6.7a | Color Ratings - Bermuda Grass (Bermuda grass; [4]): 6.0b | Quality Ratings - Bermuda Grass (Bermuda grass; [4]): 7.3ab | Color Ratings - Bermuda Grass (Bermuda grass; [5]): 6.7a | Quality Ratings - Bermuda Grass (Bermuda grass; [5]): 7.3ab | Color Ratings - Bermuda Grass (Bermuda grass; [6]): 7.3a | Quality Ratings - Bermuda Grass (Bermuda grass; [6]): 7.7ab | Color Ratings - Bermuda Grass (Bermuda grass; [7]): 7.7ab | Quality Ratings - Bermuda Grass (Bermuda grass; [7]): 8.0a | Color Ratings - Bermuda Grass (Bermuda grass; [8]): 7.0b | Quality Ratings - Bermuda Grass (Bermuda grass; [8]): 7.0b | Color Ratings - Bermuda Grass (Bermuda grass; [9]): 7.0bc | Quality Ratings - Bermuda Grass (Bermuda grass; [9]): 7.3ab | Color Ratings - Bermuda Grass (Bermuda grass; Rate 6.0 lb N/1000 ft^2, Day 7): 5.3ab | Quality Ratings - Bermuda Grass (Bermuda grass; Rate 6.0 lb N/1000 ft^2, Day 7): 6.7a | Color Ratings - Bermuda Grass (Bermuda grass; [10]): 6.7a | Quality Ratings - Bermuda Grass (Bermuda grass; [10]): 7.3ab | Color Ratings - Bermuda Grass (Bermuda grass; [11]): 7.0a | Quality Ratings - Bermuda Grass (Bermuda grass; [11]): 7.3ab | Color Ratings - Bermuda Grass (Bermuda grass; [12]): 7.7a | Quality Ratings - Bermuda Grass (Bermuda grass; [12]): 7.7ab | Color Ratings - Bermuda Grass (Bermuda grass; [13]): 7.7ab | Quality Ratings - Bermuda Grass (Bermuda grass; [13]): 7.7a | Color Ratings - Bermuda Grass (Bermuda grass; [14]): 7.3ab | Quality Ratings - Bermuda Grass (Bermuda grass; [14]): 7.0b | Color Ratings - Bermuda Grass (Bermuda grass; [15]): 7.3ab | Quality Ratings - Bermuda Grass (Bermuda grass; [15]): 7.7a | Color Ratings - Tall fescue grass [2, 16]: 5.0 days | Quality Ratings - Tall fescue grass [2, 16]: 5.7c | Color Ratings - Tall fescue grass [2, 17]: 6.0b | Quality Ratings - Tall fescue grass [2, 17]: 7.0b | Color Ratings - Tall fescue grass [2, 18]: 7.0bc | Quality Ratings - Tall fescue grass [2, 18]: 7.0b | Color Ratings - Tall fescue grass [2, 19]: 8.0a | Quality Ratings - Tall fescue grass [2, 19]: 8.0a | Color Ratings - Tall fescue grass [2, 20]: 8.0a | Quality Ratings - Tall fescue grass [2, 20]: 8.0a | Color Ratings - Tall fescue grass [2, 21]: 6.0c | Quality Ratings - Tall fescue grass [2, 21]: 6.0c | Color Ratings - Tall fescue grass [2, 22]: 7.0a | Quality Ratings - Tall fescue grass [2, 22]: 7.0b | Color Ratings - Tall fescue grass [2, 23]: 7.0bc | Quality Ratings - Tall fescue grass [2, 23]: 7.7a | Color Ratings - Tall fescue grass [2, 24]: 8.0a | Quality Ratings - Tall fescue grass [2, 24]: 8.0a | Color Ratings - Tall fescue grass [2, 25]: 8.0a | Quality Ratings - Tall fescue grass [2, 25]: 8.0a | Phytotoxicity (% Burn) - Tall fescue grass [3, 16]: 15.0b % | Phytotoxicity (% Burn) - Tall fescue grass [3, 17]: 6.7b % | Phytotoxicity (% Burn) - Tall fescue grass [3, 18]: 1.7b % | Phytotoxicity (% Burn) - Tall fescue grass [3, 19]: 0.0a % | Phytotoxicity (% Burn) - Tall fescue grass [3, 20]: 0.0a % | Phytotoxicity (% Burn) - Tall fescue grass [3, 21]: 10.0c % | Phytotoxicity (% Burn) - Tall fescue grass [3, 22]: 1.7bc % | Phytotoxicity (% Burn) - Tall fescue grass [3, 23]: 0.0b % | Phytotoxicity (% Burn) - Tall fescue grass [3, 24]: 0.0a % | Phytotoxicity (% Burn) - Tall fescue grass [3, 25]: 0.0a %
